Laboratory results: ChEMBL document CHEMBL3112480, “γ-Alkylidene-γ-lactones and isobutylpyrrol-2(5H)-ones analogues to rubrolides as inhibitors of biofilm formation by gram-positive and gram-negative bacteria” (Bioorg Med Chem Lett, 2014)
Values after ≈ are worked out from the molar mass of the structure shown.

Assays:
Streptococcus mutans [1] = assay: Antibacterial activity against Streptococcus mutans ATCC 25175 assessed as effect on planktonic growth at 0.17 ug/ml after 20 hrs relative to control; assay type: functional
Streptococcus mutans [2] = assay: Antibacterial activity against Streptococcus mutans ATCC 25175 assessed as effect on planktonic growth at 1.37 ug/ml after 20 hrs relative to control; assay type: functional
Staphylococcus aureus [3] = assay: Antibacterial activity against Staphylococcus aureus ATCC 25923 assessed as effect on planktonic growth at 87.5 ug/ml after 20 hrs relative to control; assay type: functional
Streptococcus mutans [4] = assay: Antibacterial activity against Streptococcus mutans ATCC 25175 assessed as effect on planktonic growth at 0.68 ug/ml after 20 hrs relative to control; assay type: functional
Streptococcus mutans [5] = assay: Antibacterial activity against Streptococcus mutans ATCC 25175 assessed as effect on planktonic growth at 0.34 ug/ml after 20 hrs relative to control; assay type: functional
Pseudomonas aeruginosa [6] = assay: Antibacterial activity against Pseudomonas aeruginosa ATCC 27853 assessed as effect on planktonic growth at 0.34 ug/ml after 20 hrs relative to control; assay type: functional
Pseudomonas aeruginosa [7] = assay: Antibacterial activity against Pseudomonas aeruginosa ATCC 27853 assessed as effect on planktonic growth at 87.5 ug/ml after 20 hrs relative to control; assay type: functional
Pseudomonas aeruginosa [8] = assay: Antibacterial activity against Pseudomonas aeruginosa ATCC 27853 assessed as inhibition of biofilm formation after 20 hrs by crystal-violet staining method; assay type: functional, organism-based; settings: for IC50: ATCC 27853, 20 h
Pseudomonas aeruginosa [9] = assay: Antibacterial activity against Pseudomonas aeruginosa ATCC 27853 assessed as effect on planktonic growth at 21.9 ug/ml after 20 hrs relative to control; assay type: functional
[10] = tested on: Staphylococcus epidermidis; assay: Antibacterial activity against Staphylococcus epidermidis ATCC 35547 assessed as effect on planktonic growth at 1.37 ug/ml after 20 hrs relative to control; assay type: functional
[11] = tested on: Staphylococcus epidermidis; assay: Antibacterial activity against Staphylococcus epidermidis ATCC 35547 assessed as effect on planktonic growth at 21.9 ug/ml after 20 hrs relative to control; assay type: functional
[12] = tested on: Staphylococcus epidermidis; assay: Antibacterial activity against Staphylococcus epidermidis ATCC 35547 assessed as effect on planktonic growth at 10.9 ug/ml after 20 hrs relative to control; assay type: functional
Streptococcus mutans [13] = assay: Antibacterial activity against Streptococcus mutans ATCC 25175 assessed as effect on planktonic growth at 43.8 ug/ml after 20 hrs relative to control; assay type: functional
[14] = tested on: Staphylococcus epidermidis; assay: Antibacterial activity against Staphylococcus epidermidis ATCC 35547 assessed as effect on planktonic growth at 2.73 ug/ml after 20 hrs relative to control; assay type: functional
Staphylococcus aureus [15] = assay: Antibacterial activity against Staphylococcus aureus ATCC 25923 assessed as effect on planktonic growth at 5.5 ug/ml after 20 hrs relative to control; assay type: functional
[16] = tested on: Staphylococcus epidermidis; assay: Antibacterial activity against Staphylococcus epidermidis ATCC 35547 assessed as effect on planktonic growth at 5.5 ug/ml after 20 hrs relative to control; assay type: functional
Pseudomonas aeruginosa [17] = assay: Antibacterial activity against Pseudomonas aeruginosa ATCC 27853 assessed as effect on planktonic growth at 0.17 ug/ml after 20 hrs relative to control; assay type: functional
[18] = tested on: Staphylococcus epidermidis; assay: Antibacterial activity against Staphylococcus epidermidis ATCC 35547 assessed as effect on planktonic growth at 87.5 ug/ml after 20 hrs relative to control; assay type: functional
Staphylococcus aureus [19] = assay: Antibacterial activity against Staphylococcus aureus ATCC 25923 assessed as effect on planktonic growth at 0.68 ug/ml after 20 hrs relative to control; assay type: functional
Pseudomonas aeruginosa [20] = assay: Antibacterial activity against Pseudomonas aeruginosa ATCC 27853 assessed as effect on planktonic growth at 43.8 ug/ml after 20 hrs relative to control; assay type: functional
[21] = tested on: Staphylococcus epidermidis; assay: Antibacterial activity against Staphylococcus epidermidis ATCC 35547 assessed as effect on planktonic growth at 0.34 ug/ml after 20 hrs relative to control; assay type: functional
Staphylococcus aureus [22] = assay: Antibacterial activity against Staphylococcus aureus ATCC 25923 assessed as effect on planktonic growth at 2.73 ug/ml after 20 hrs relative to control; assay type: functional
Staphylococcus aureus [23] = assay: Antibacterial activity against Staphylococcus aureus ATCC 25923 assessed as effect on planktonic growth at 10.9 ug/ml after 20 hrs relative to control; assay type: functional
Streptococcus mutans [24] = assay: Antibacterial activity against Streptococcus mutans ATCC 25175 assessed as effect on planktonic growth at 5.5 ug/ml after 20 hrs relative to control; assay type: functional
Pseudomonas aeruginosa [25] = assay: Antibacterial activity against Pseudomonas aeruginosa ATCC 27853 assessed as effect on planktonic growth at 0.68 ug/ml after 20 hrs relative to control; assay type: functional
Pseudomonas aeruginosa [26] = assay: Antibacterial activity against Pseudomonas aeruginosa ATCC 27853 assessed as effect on planktonic growth at 2.73 ug/ml after 20 hrs relative to control; assay type: functional
Staphylococcus aureus [27] = assay: Antibacterial activity against Staphylococcus aureus ATCC 25923 assessed as effect on planktonic growth at 43.8 ug/ml after 20 hrs relative to control; assay type: functional
Staphylococcus aureus [28] = assay: Antibacterial activity against Staphylococcus aureus ATCC 25923 assessed as effect on planktonic growth at 0.34 ug/ml after 20 hrs relative to control; assay type: functional
Streptococcus mutans [29] = assay: Antibacterial activity against Streptococcus mutans ATCC 25175 assessed as effect on planktonic growth at 2.73 ug/ml after 20 hrs relative to control; assay type: functional
Staphylococcus aureus [30] = assay: Antibacterial activity against Staphylococcus aureus ATCC 25923 assessed as inhibition of biofilm formation at 44 ug/ml after 20 hrs by crystal-violet staining method relative to control; assay type: functional; settings: ATCC 25923, 20 h
Pseudomonas aeruginosa [31] = assay: Antibacterial activity against Pseudomonas aeruginosa ATCC 27853 assessed as effect on planktonic growth at 1.37 ug/ml after 20 hrs relative to control; assay type: functional
[32] = tested on: Staphylococcus epidermidis; assay: Antibacterial activity against Staphylococcus epidermidis ATCC 35547 assessed as effect on planktonic growth at 0.17 ug/ml after 20 hrs relative to control; assay type: functional
Streptococcus mutans [33] = assay: Antibacterial activity against Streptococcus mutans ATCC 25175 assessed as effect on planktonic growth at 87.5 ug/ml after 20 hrs relative to control; assay type: functional
Staphylococcus aureus [34] = assay: Antibacterial activity against Staphylococcus aureus ATCC 25923 assessed as effect on planktonic growth at 21.9 ug/ml after 20 hrs relative to control; assay type: functional
Streptococcus mutans [35] = assay: Antibacterial activity against Streptococcus mutans ATCC 25175 assessed as effect on planktonic growth at 10.9 ug/ml after 20 hrs relative to control; assay type: functional
Pseudomonas aeruginosa [36] = assay: Antibacterial activity against Pseudomonas aeruginosa ATCC 27853 assessed as effect on planktonic growth at 5.5 ug/ml after 20 hrs relative to control; assay type: functional
Streptococcus mutans [37] = assay: Antibacterial activity against Streptococcus mutans ATCC 25175 assessed as effect on planktonic growth at 21.9 ug/ml after 20 hrs relative to control; assay type: functional
Pseudomonas aeruginosa [38] = assay: Antibacterial activity against Pseudomonas aeruginosa ATCC 27853 assessed as effect on planktonic growth at 10.9 ug/ml after 20 hrs relative to control; assay type: functional
Staphylococcus aureus [39] = assay: Antibacterial activity against Staphylococcus aureus ATCC 25923 assessed as effect on planktonic growth at 1.37 ug/ml after 20 hrs relative to control; assay type: functional
[40] = tested on: Staphylococcus epidermidis; assay: Antibacterial activity against Staphylococcus epidermidis ATCC 35547 assessed as effect on planktonic growth at 0.68 ug/ml after 20 hrs relative to control; assay type: functional
Staphylococcus aureus [41] = assay: Antibacterial activity against Staphylococcus aureus ATCC 25923 assessed as effect on planktonic growth at 0.17 ug/ml after 20 hrs relative to control; assay type: functional
[42] = tested on: Staphylococcus epidermidis; assay: Antibacterial activity against Staphylococcus epidermidis ATCC 35547 assessed as effect on planktonic growth at 43.8 ug/ml after 20 hrs relative to control; assay type: functional
[43] = tested on: Staphylococcus epidermidis; assay: Antibacterial activity against Staphylococcus epidermidis ATCC 35547 assessed as inhibition of biofilm formation after 20 hrs by crystal-violet staining method; assay type: functional, organism-based
[44] = tested on: Staphylococcus epidermidis; assay: Induction of biofilm formation in Staphylococcus epidermidis ATCC 35547 at 87.5 ug/ml after 20 hrs by crystal-violet staining method relative to control; assay type: organism-based

Structure (SMILES): COc1ccc(C)cc1C1=C(Br)C(=O)N(CC(C)C)/C1=C/c1ccccc1Cl
- Activity (Streptococcus mutans [1]): 11.9%
- Activity (Streptococcus mutans [2]): 20.6%
- Activity (Staphylococcus aureus [3]): 20.1%
- Activity (Streptococcus mutans [4]): 9%
- Activity (Streptococcus mutans [5]): 18.1%
- Activity (Pseudomonas aeruginosa [6]): 0.6%
- Activity (Pseudomonas aeruginosa [7]): -4.3%
- inhibition (Pseudomonas aeruginosa [8]): Dose-dependent effect
- IC50 (Pseudomonas aeruginosa [8]): 1.4 µg/mL (≈ 3.04 µM)
- Activity (Pseudomonas aeruginosa [9]): -13.2%
- Activity [10]: -2.3%
- Activity [11]: 5.9%
- Activity [12]: 6%
- Activity (Streptococcus mutans [13]): 20.1%
- Activity [14]: 0.4%
- Activity (Staphylococcus aureus [15]): -9.4%
- Activity [16]: -1%
- Activity (Pseudomonas aeruginosa [17]): 1.2%
- Activity [18]: 23.5%
- Activity (Staphylococcus aureus [19]): -3.6%
- Activity (Pseudomonas aeruginosa [20]): -7.7%
- Activity [21]: 3.6%
- Activity (Staphylococcus aureus [22]): -10.4%
- Activity (Staphylococcus aureus [23]): -11.2%
- Activity (Streptococcus mutans [24]): 25.4%
- Activity (Pseudomonas aeruginosa [25]): -2.7%
- Activity (Pseudomonas aeruginosa [26]): -18.8%
- Activity (Staphylococcus aureus [27]): 4.6%
- Activity (Staphylococcus aureus [28]): -6.6%
- Activity (Streptococcus mutans [29]): 24.3%
- inhibition at 44 µg/mL (Staphylococcus aureus [30]): 34%
- Activity (Pseudomonas aeruginosa [31]): -10%
- Activity [32]: -2.9%
- Activity (Streptococcus mutans [33]): 20.1%
- Activity (Staphylococcus aureus [34]): -13.2%
- Activity (Streptococcus mutans [35]): 18.6%
- Activity (Pseudomonas aeruginosa [36]): -17.8%
- Activity (Streptococcus mutans [37]): 13.8%
- Activity (Pseudomonas aeruginosa [38]): -15%
- Activity (Staphylococcus aureus [39]): -4.6%
- Activity [40]: -6.1%
- Activity (Staphylococcus aureus [41]): -6.6%
- Activity [42]: 26.9%
- inhibition [43]: Dose-dependent effect
- IC50 ([43]; ATCC 35547, 20 h): > 87.5 µg/mL

Structure (SMILES): COc1cccc(CC2(O)C(c3cc(Cl)ccc3OC)=C(Br)C(=O)N2CC(C)C)c1 (centres undefined)
- Activity (Streptococcus mutans [1]): -14%
- Activity (Streptococcus mutans [2]): -8.7%
- Activity (Staphylococcus aureus [3]): 22.1%
- Activity (Streptococcus mutans [4]): -12.5%
- Activity (Streptococcus mutans [5]): -12.5%
- Activity (Pseudomonas aeruginosa [6]): -5.8%
- Activity (Pseudomonas aeruginosa [7]): -3.6%
- inhibition (Pseudomonas aeruginosa [8]): Dose-dependent effect
- IC50 (Pseudomonas aeruginosa [8]): 2.2 µg/mL (≈ 4.45 µM)
- Activity [44]: 46.9%
- Activity (Pseudomonas aeruginosa [9]): -3.7%
- Activity [10]: 4.7%
- Activity [11]: 6.9%
- Activity [12]: -0.3%
- Activity (Streptococcus mutans [13]): 6.5%
- Activity [14]: 3.4%
- Activity (Staphylococcus aureus [15]): -8.1%
- Activity [16]: 6.4%
- Activity (Pseudomonas aeruginosa [17]): -4%
- Activity [18]: 14.5%
- Activity (Staphylococcus aureus [19]): -5%
- Activity (Pseudomonas aeruginosa [20]): -2.3%
- Activity [21]: 3.3%
- Activity (Staphylococcus aureus [22]): 2.3%
- Activity (Staphylococcus aureus [23]): -9.9%
- Activity (Streptococcus mutans [24]): 1.6%
- Activity (Pseudomonas aeruginosa [25]): -6.7%
- Activity (Pseudomonas aeruginosa [26]): -18.9%
- Activity (Staphylococcus aureus [27]): 0.7%
- Activity (Staphylococcus aureus [28]): 0.7%
- Activity (Streptococcus mutans [29]): 0.3%
- Activity (Pseudomonas aeruginosa [31]): -4.2%
- Activity [32]: 10%
- Activity (Streptococcus mutans [33]): 9%
- Activity (Staphylococcus aureus [34]): -15.1%
- Activity (Streptococcus mutans [35]): -3.7%
- Activity (Pseudomonas aeruginosa [36]): -5.5%
- Activity (Streptococcus mutans [37]): -0.6%
- Activity (Pseudomonas aeruginosa [38]): -3.3%
- Activity (Staphylococcus aureus [39]): 6.8%
- Activity [40]: 5.1%
- Activity (Staphylococcus aureus [41]): 2%
- Activity [42]: 15.7%
- inhibition [43]: Dose-dependent effect
